We go through 14 compounds from patent US10919851B2, “2-pyrrolidine phenylhydrazides antibacterial agents” (ABAC THERAPEUTICS, S.L, priority 2016, dated 2021).

≈ marks a conversion by molar mass, not a printed value.

One may read the MIC as the lowest concentration that inhibits growth of the organism. The term melting point denotes the temperature of the solid-liquid transition.

One data set concerns Enterococcus faecium. As to the kind of experiment: MIC, standard microtiter dilution method (CLSI M07-A9). Type of data set: cell-based. The note with it: media with 2.5% lysed horse blood, 37° C., 24 hours, read-out: MIC E. faecium. The protocol: (§1) The products of the present invention were tested for their activity against Acinetobacter baumannii (A. baumannii) as well as against the following bacteria: Staphylococcus aureus (S. aureus), Streptococcus pneumoniae (S. pneumoniae), Enterococcus faecium (E. faecium), Pseudomonas aeruginosa (P. aeruginosa), Klebsiella pneumoniae (K. pneumoniae) and Escherichia coli (E. coli). Minimal inhibitory concentrations (MICs) were determined using a standard microtiter dilution method, according to the Clinical and Laboratory Standards Institute (CLSI) procedures, in particular according to […]-A9: “Methods for Dilution Antimicrobial Susceptibility Tests for Bacteria That Grow Aerobically; Approved Standard-Ninth Edition”. Briefly, compounds were dissolved with dimethyl sulfoxide (DMSO) at 12.8 mg/mL. Serial two-fold dilutions of compounds were performed in DMSO and 1 μl of each dilution were transferred into microtiter culture plates, followed by 100 μl of inoculated culture media to give a final microorganism concentration of 5×10^5 colony-forming units/mL. Plates were incubated at 37° C. for 24 hours and MICs determined as the lowest compound concentration that inhibited growth. Media used in determinations were Cation adjusted Mueller-Hinton Broth for all the microorganisms except for S. pneumoniae and E. faecium whose culture media were supplemented with 2.5% of lysed horse blood. Incubations were performed at air atmosphere except S. pneumoniae cultures that were incubated with 5% CO2 atmosphere.

Another data set has as its system Klebsiella pneumoniae. The description is as above. Type of data set: cell-based. The note with it: Cation adjusted Mueller-Hinton Broth, 37° C., 24 hours, read-out: MIC K. pneumoniae. The protocol:
as §1

In the next data set the test system is Acinetobacter baumannii. Described as above. Type of data set: cell-based. The note with it: Cation adjusted Mueller-Hinton Broth, 37° C., 24 hours. The protocol: as §1
Another data set relates to Escherichia coli. The data set is described as above. Format: cell-based. The note with it: Cation adjusted Mueller-Hinton Broth, 37° C., 24 hours. The protocol:
as §1

A further data set has as its system Streptococcus pneumoniae. The data set is described as above. Format: cell-based. The note with it: media with 2.5% lysed horse blood, 5% CO2, 37° C., 24 hours, read-out: MIC S. pneumoniae. The protocol:
as §1

In another data set the test system is Pseudomonas aeruginosa. The description is as above. Format: cell-based. The settings on record: Cation adjusted Mueller-Hinton Broth, 37° C., 24 hours, read-out: MIC P. aeruginosa. The protocol:
as §1

A further data set relates to Staphylococcus aureus. Described as above. Format: cell-based. The settings on record: Cation adjusted Mueller-Hinton Broth, 37° C., 24 hours, read-out: MIC S. aureus. The protocol: as §1

Take `CN1CCCC1(C)C(=O)NNc1ccc(F)cc1` (stereo not drawn) [Example 16, N′-(4-fluorophenyl)-1,2-dimethylpyrrolidine-2-carbohydrazide]: the MIC was over 128 µg/mL in the data set on Enterococcus faecium; over 128 µg/mL in the data set on Klebsiella pneumoniae; 0.25 µg/mL (≈ 0.995 µM) against Acinetobacter baumannii; over 128 µg/mL with Escherichia coli; over 128 µg/mL in the data set with Streptococcus pneumoniae; over 128 µg/mL with Pseudomonas aeruginosa. Besides, in the data set with Staphylococcus aureus, the MIC was over 128 µg/mL.

Turning to `NC(=O)N1CCCC1C(=O)NNc1ccc2c(c1)OCCO2` (stereo not drawn) [Example 11, 2-(2-(2,3-dihydrobenzo[b][1,4]dioxin-6-yl) hydrazinecarbonyl)pyrrolidine-1-carboxamide], the MIC in the data set with Enterococcus faecium was over 128 µg/mL; in the data set with Klebsiella pneumoniae it was over 128 µg/mL; against Acinetobacter baumannii it was 8 µg/mL (≈ 26.1 µM); in the data set on Escherichia coli, over 128 µg/mL; with Streptococcus pneumoniae, over 128 µg/mL; in the data set on Pseudomonas aeruginosa it was over 128 µg/mL. For the same compound, in the data set on Staphylococcus aureus, the MIC was over 128 µg/mL.

For the compound `CC(=O)N1CCC[C@@H]1C(=O)NNc1ccc(F)cc1` [Example 14, (R)-1-acetyl-N′-(4-fluorophenyl)pyrrolidine-2-carbohydrazide], the MIC in the data set on Enterococcus faecium was over 128 µg/mL; with Klebsiella pneumoniae it was over 128 µg/mL; against Acinetobacter baumannii it was 2 µg/mL (≈ 7.54 µM); against Escherichia coli it was over 128 µg/mL; in the data set with Streptococcus pneumoniae, over 128 µg/mL; in the data set on Pseudomonas aeruginosa it was over 128 µg/mL. In the data set on Staphylococcus aureus, the minimal inhibitory concentration (MIC) is over 128 µg/mL.

Regarding `NC(=O)N1CCC[C@@H]1C(=O)NNc1ccc(F)cc1` [Example 2, (R)-2-(2-(4-fluorophenyl)hydrazinecarbonyl)pyrrolidine-1-carboxamide], the minimal inhibitory concentration (MIC) with Enterococcus faecium was over 128 µg/mL; in the data set with Klebsiella pneumoniae it was over 128 µg/mL; in the data set with Acinetobacter baumannii, 4 µg/mL (≈ 15 µM); in the data set with Escherichia coli, over 128 µg/mL; with Streptococcus pneumoniae, over 128 µg/mL; with Pseudomonas aeruginosa it was over 128 µg/mL. Besides, the minimum inhibitory concentration (MIC) in the data set on Staphylococcus aureus is over 128 µg/mL.

As for `NC(=O)N1CCCC1C(=O)NNc1ccc(Cl)cc1F` (stereo not drawn) [Example 9, 2-(2-(4-chloro-2-fluorophenyl)hydrazinecarbonyl)pyrrolidine-1-carboxamide], the MIC with Enterococcus faecium was over 128 µg/mL; in the data set with Klebsiella pneumoniae, over 128 µg/mL; in the data set with Acinetobacter baumannii, 8 µg/mL (≈ 26.6 µM); in the data set on Escherichia coli, over 128 µg/mL; in the data set with Streptococcus pneumoniae, over 128 µg/mL; in the data set with Pseudomonas aeruginosa, over 128 µg/mL. Further, in the data set on Staphylococcus aureus, the MIC was over 128 µg/mL.

As to `NC(=O)N1CCC[C@H]1C(=O)NNc1ccc(F)cc1` [Example 3, (S)-2-(2-(4-fluorophenyl) hydrazinecarbonyl) pyrrolidine-1-carboxamide], the MIC is over 128 µg/mL in the data set on Enterococcus faecium; over 128 µg/mL in the data set with Klebsiella pneumoniae; 4 µg/mL (≈ 15 µM) with Acinetobacter baumannii; over 128 µg/mL against Escherichia coli; over 128 µg/mL in the data set with Streptococcus pneumoniae; over 128 µg/mL with Pseudomonas aeruginosa. In addition, the MIC with Staphylococcus aureus was over 128 µg/mL.

For the compound `O=C(NNc1ccc(F)cc1)C1CCCN1O` (stereo not drawn) [Example 15, N′-(4-fluorophenyl)-1-hydroxypyrrolidine-2-carbohydrazide], the minimal inhibitory concentration (MIC) in the data set with Enterococcus faecium is over 128 µg/mL; in the data set on Klebsiella pneumoniae it was over 128 µg/mL; against Acinetobacter baumannii it was 1 µg/mL (≈ 4.18 µM); with Escherichia coli, over 128 µg/mL; with Streptococcus pneumoniae it was over 128 µg/mL; with Pseudomonas aeruginosa it was over 128 µg/mL. The minimum inhibitory concentration (MIC) with Staphylococcus aureus is over 128 µg/mL.

Regarding `NC(=O)N1CCCC1C(=O)NNc1ccc(OC(F)(F)F)cc1` (stereo not drawn) [Example 7, 2-(2-(4-(trifluoromethoxy)phenyl)hydrazinecarbonyl)pyrrolidine-1-carboxamide], the MIC with Enterococcus faecium is over 128 µg/mL; in the data set on Klebsiella pneumoniae, over 128 µg/mL; against Acinetobacter baumannii, 8 µg/mL (≈ 24.1 µM); with Escherichia coli, over 128 µg/mL; with Streptococcus pneumoniae, over 128 µg/mL; in the data set with Pseudomonas aeruginosa it was over 128 µg/mL. Moreover, the MIC in the data set on Staphylococcus aureus was 128 µg/mL (≈ 385 µM).

Take `NC(=O)N1CCCC1C(=O)NNc1ccc(F)cc1` (stereo not drawn) [Example 4, 2-(2-(4-fluorophenyl)hydrazinecarbonyl)pyrrolidine-1-carboxamide]: the melting point fell in the range of 140 to 144 °C. Further, in the data set on Enterococcus faecium, the MIC was over 128 µg/mL. For the same compound, in the data set on Klebsiella pneumoniae, the minimum inhibitory concentration (MIC) is over 128 µg/mL. For the same compound, the MIC against Acinetobacter baumannii is 2 µg/mL (≈ 7.51 µM). For the same compound, the MIC against Escherichia coli was over 128 µg/mL. In addition, in the data set on Streptococcus pneumoniae, the MIC was over 128 µg/mL. In addition, in the data set with Pseudomonas aeruginosa, the MIC is over 128 µg/mL. Also, the minimum inhibitory concentration (MIC) in the data set on Staphylococcus aureus is over 128 µg/mL.

Consider `O=C(NNc1ccc(F)cc1)[C@@H]1CCCN1CC1CC1` [Example 25, (S)-1-(cyclopropylmethyl)-N′-(4-fluorophenyl)pyrrolidine-2-carbohydrazide], for which the MIC is over 128 µg/mL in the data set on Enterococcus faecium; over 128 µg/mL in the data set on Klebsiella pneumoniae; 0.25 µg/mL (≈ 0.901 µM) in the data set on Acinetobacter baumannii; over 128 µg/mL against Escherichia coli; over 128 µg/mL with Streptococcus pneumoniae; over 128 µg/mL in the data set on Pseudomonas aeruginosa. The MIC in the data set with Staphylococcus aureus was over 128 µg/mL.

Consider `Cl.O=C(NNc1ccc(F)cc1)C1CCCN1C(=O)N1CCNCC1` (stereo not drawn) [Example 18, N′-(4-fluorophenyl)-1-(piperazine-1-carbonyl)pyrrolidine-2-carbohydrazide hydrochloride], for which the minimal inhibitory concentration (MIC) in the data set with Enterococcus faecium is over 128 µg/mL; in the data set with Klebsiella pneumoniae, over 128 µg/mL; in the data set with Acinetobacter baumannii it was 8 µg/mL; against Escherichia coli, over 128 µg/mL; in the data set with Streptococcus pneumoniae, over 128 µg/mL; with Pseudomonas aeruginosa it was over 128 µg/mL. Besides, in the data set on Staphylococcus aureus, the minimum inhibitory concentration (MIC) amounted to 128 µg/mL.

`COc1ccc(NNC(=O)C2CCCN2C(N)=O)cc1` (stereo not drawn) [Example 10, 2-(2-(4-methoxyphenyl)hydrazinecarbonyl)pyrrolidine-1-carboxamide]: the minimum inhibitory concentration (MIC) with Enterococcus faecium is over 128 µg/mL; in the data set with Klebsiella pneumoniae, over 128 µg/mL; against Acinetobacter baumannii, 2 µg/mL (≈ 7.19 µM); with Escherichia coli it was over 128 µg/mL; with Streptococcus pneumoniae, over 128 µg/mL; in the data set with Pseudomonas aeruginosa it was over 128 µg/mL. The MIC with Staphylococcus aureus was over 128 µg/mL.

For `CN1CC2CC2C1C(=O)NNc1ccc(F)cc1` (stereo not drawn) [Example 26, N′-(4-fluorophenyl)-3-methyl-3-azabicyclo[3.1.0]hexane-2-carbohydrazide], the MIC in the data set on Enterococcus faecium was over 128 µg/mL; in the data set with Klebsiella pneumoniae, over 128 µg/mL; against Acinetobacter baumannii, 0.25 µg/mL (≈ 1 µM); against Escherichia coli, over 128 µg/mL; in the data set with Streptococcus pneumoniae, over 128 µg/mL; in the data set with Pseudomonas aeruginosa, over 128 µg/mL. For the same compound, in the data set with Staphylococcus aureus, the minimal inhibitory concentration (MIC) is over 128 µg/mL.

Take `Cl.N=C(N)N1CCCC1C(=O)NNc1ccc(F)cc1` (stereo not drawn) [Example 30, 2-(2-(4-fluorophenyl)hydrazinecarbonyl)pyrrolidine-1-carboximidamide hydrochloride]: the MIC was over 128 µg/mL with Enterococcus faecium; over 128 µg/mL in the data set on Klebsiella pneumoniae; 2 µg/mL with Acinetobacter baumannii; over 128 µg/mL in the data set on Escherichia coli; over 128 µg/mL in the data set with Streptococcus pneumoniae; over 128 µg/mL in the data set with Pseudomonas aeruginosa. Moreover, in the data set with Staphylococcus aureus, the MIC is over 128 µg/mL.
